Patent US6100074A, “Mutant mono-oxygenase cytochrome P-450 cam” (BG plc, priority 1994, dated 2000)

Key:
[1] = target: T1, P450cam mutant Y96F, C334A (Pseudomonas putida, UniProt P00183, C335A/Y97F); format: biochemical, P. putida
T1 construct: reconstituted with putidaredoxin and putidaredoxin reductase
Protocol: (§1) […] The enzymatic reaction was initiated by firstly adding NADH to a total concentration of 2 mM. Further four aliquots of NADH (to increase the NADH concentration by 1 mM each time) were added in intervals of 5 min and the reaction quenched after 30 min by adding 0.5 ml chloroform. The chloroform layer was analysed by gas chromatography.
(§2) Reaction products for some substrate compounds have been purified by high performance liquid chromatography and identified by mass spectroscopy, nuclear magnetic resonance, and/or co-elution. […] Table 4(a) to 4(h) details the product distributions for mutant and substrate combinations where this has been elucidated to date.
(§3) Product structure and distributions following oxidation of substrates
(§4) active site mutants. All mutants shown below also contain the C334A

[2] = target: T2, P450cam mutant Y96A, C334A (Pseudomonas putida, UniProt P00183, C335A/Y97A); format: biochemical, P. putida
T2 construct: reconstituted with putidaredoxin and putidaredoxin reductase
T2 sequence (P00259 whole entry): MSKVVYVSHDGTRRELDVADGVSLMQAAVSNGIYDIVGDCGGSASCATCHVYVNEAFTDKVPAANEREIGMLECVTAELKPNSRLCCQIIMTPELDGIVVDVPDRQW
T2 sequence (P00183 2-415 Y97A/C335A): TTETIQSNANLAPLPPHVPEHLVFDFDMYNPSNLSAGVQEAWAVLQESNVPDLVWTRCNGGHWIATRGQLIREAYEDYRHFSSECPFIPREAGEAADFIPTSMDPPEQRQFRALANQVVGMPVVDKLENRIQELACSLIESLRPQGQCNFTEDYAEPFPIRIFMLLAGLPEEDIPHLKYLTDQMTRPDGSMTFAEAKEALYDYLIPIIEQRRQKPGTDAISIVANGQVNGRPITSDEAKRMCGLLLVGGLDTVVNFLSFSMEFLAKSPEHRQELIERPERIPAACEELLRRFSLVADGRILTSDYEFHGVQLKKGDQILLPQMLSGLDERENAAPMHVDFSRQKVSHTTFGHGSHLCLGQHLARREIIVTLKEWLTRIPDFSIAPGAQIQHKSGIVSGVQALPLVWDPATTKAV
T2 sequence (P16640 whole entry, further chain): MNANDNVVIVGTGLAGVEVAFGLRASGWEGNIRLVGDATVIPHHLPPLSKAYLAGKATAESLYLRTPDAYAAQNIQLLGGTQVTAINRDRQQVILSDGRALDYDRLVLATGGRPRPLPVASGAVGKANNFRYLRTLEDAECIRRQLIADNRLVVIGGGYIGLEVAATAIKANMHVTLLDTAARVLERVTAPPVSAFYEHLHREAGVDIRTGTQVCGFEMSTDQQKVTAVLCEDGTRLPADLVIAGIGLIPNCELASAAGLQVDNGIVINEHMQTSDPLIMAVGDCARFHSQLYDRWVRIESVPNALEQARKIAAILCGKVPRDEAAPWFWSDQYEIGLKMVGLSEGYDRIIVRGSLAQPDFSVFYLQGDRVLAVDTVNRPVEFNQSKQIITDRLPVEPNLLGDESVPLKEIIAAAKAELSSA
Protocol: as §1, §2, §3, §4

[3] = target: T2, P450cam mutant Y96A, C334A; format: biochemical, P. putida; settings: also contains C334A
Protocol: A solution containing 10 μM putidaredoxin, 2 μM putidaredoxin reductase, 1 μM cytochrome P-450cam mono-oyxgenase (wild-type or mutant) and 1 mM diphenylmethane in 100 mM KC1, 20 mM KH2 PO4 pH7.4 was preincubated at 25° C. in a shaker for 5 min. The enzymatic reaction was initiated by firstly adding NADH to a total concentration of 2 mM. Further four aliquots of NADH (to increase the NADH concentration by 1 mM each time) were added in intervals of 5 min and the reaction quenched after 30 min by adding 0.5 ml chloroform. The chloroform layer was analysed by gas chromatography.
as §2
All mutants listed below also contain the C334A mutation.
Turnover rate measured as NADH consumption rate
(nmole NADH/nmole P450cam/s).

P-450cam mutant Y96A [4] = target: T3, P-450cam mutant Y96A (Pseudomonas putida, UniProt P00183, Y97A); experiment: biochemical; format: binding; settings: for percent displacement of bound DTT at 200 µM: Mutant Y96A, 200 μM DTT, 200 μM test compound
T3 sequence (P00183 2-415 Y97A): as the sequence (P00183 2-415 Y97A/C335A) above, with A334C counted along it

wild type P450cam [5] = target: T4, wild type P450cam (Pseudomonas putida, UniProt P00183); format: binding; settings: Wild type; 200 μM test compound, phosphate buffer pH 7.4
Target sequence in this assay (P00183 whole entry): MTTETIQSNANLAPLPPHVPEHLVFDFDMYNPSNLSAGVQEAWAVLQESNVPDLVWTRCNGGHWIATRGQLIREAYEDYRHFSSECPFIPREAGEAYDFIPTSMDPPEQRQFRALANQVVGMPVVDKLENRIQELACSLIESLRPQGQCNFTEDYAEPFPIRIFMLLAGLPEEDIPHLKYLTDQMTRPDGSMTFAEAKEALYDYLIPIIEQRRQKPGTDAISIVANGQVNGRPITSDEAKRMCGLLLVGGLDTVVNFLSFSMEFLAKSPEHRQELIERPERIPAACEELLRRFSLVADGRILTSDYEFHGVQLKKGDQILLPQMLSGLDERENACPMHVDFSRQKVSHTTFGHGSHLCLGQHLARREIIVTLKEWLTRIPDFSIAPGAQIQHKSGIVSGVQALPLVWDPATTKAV

wild type P450cam [6] = target: T4, wild type P450cam; experiment: biochemical; format: binding; settings: Wild type; 200 μM DTT, 200 μM test compound, phosphate buffer; read-out: Vs DTT (percentage displacement of DTT bound to P-450)
Target sequence in this assay (P00183 whole entry): as above

P-450cam mutant Y96A [7] = target: T3, P-450cam mutant Y96A; format: biochemical; design: key: Those substrates where oxidation has been demonstrated by means of NADH turnover are marked with a + sign
wild type P450cam [8] = target: T4, wild type P450cam; experiment: Turnover rate measured as NADH consumption rate, wild type; format: biochemical, P. putida; design: reconstituted with putidaredoxin and putidaredoxin reductase
Target sequence in this assay (P00259 whole entry): as the sequence (P00259 whole entry) above
Target sequence in this assay (P00183 whole entry): as the sequence (P00183 whole entry) above
Target sequence in this assay (P16640 whole entry, further chain): as the sequence (P16640 whole entry, further chain) above

[9] = phosphate buffer, read-out: Vs DTT (percentage displacement of DTT bound to P-450)

T1 sequence (P16640 whole entry): as the sequence (P16640 whole entry, further chain) above
T1 sequence (P00183 2-415 Y97F/C335A): as the sequence (P00183 2-415 Y97A/C335A) above, with A96F counted along it
T1 sequence (P00259 whole entry, further chain): as the sequence (P00259 whole entry) above

CCCCC(C)C [2-methyl hexane]
Relative activity (WT = 1) [1]: 2.3 | Products (%): 2-methyl-2-hexanol ([1]; 2-methyl hexane): 72% | Products (%): 2-methyl-3-hexanol ([1]; 2-methyl hexane): 7% | Products (%): 5-methyl-2-hexanol ([1]; 2-methyl hexane): 5% | Products (%): 5-methyl-2-hexanone ([1]; 2-methyl hexane): 16% | Relative activity (WT = 1) [2]: 2.6 | Products (%): 2-methyl-2-hexanol ([2]; 2-methyl hexane): 74% | Products (%): 2-methyl-3-hexanol ([2]; 2-methyl hexane): 4% | Products (%): 5-methyl-2-hexanol ([2]; 2-methyl hexane): 8% | Products (%): 5-methyl-2-hexanone ([2]; 2-methyl hexane): 14% | Turnover rate measured as NADH consumption rate [3]: 10.6 nmole NADH/nmole P450cam/s

C1CC[C@H]2CCCC[C@@H]2C1 [trans-Decahydro naphthalene]
percent displacement of bound DTT at 200 µM (P-450cam mutant Y96A [4]; [9]): 70% | ΔSpin high/low (percentage of P-450 converted from low- to high-spin) (wild type P450cam [5]): 20% | inhibition at 200 µM (wild type P450cam [6]): 10%

c1ccc(Oc2ccccc2)cc1 [Diphenylether]
percent displacement of bound DTT at 200 µM (P-450cam mutant Y96A [4]; [9]): 50% | ΔSpin high/low (percentage of P-450 converted from low- to high-spin) (wild type P450cam [5]): 10% | inhibition at 200 µM (wild type P450cam [6]): 5%

CCCCCC [Hexane]
Vs DTT (percentage displacement of DTT bound to P-450) (P-450cam mutant Y96A [4]; phosphate buffer, 200 µM): 40 | inhibition at 200 µM (P-450cam mutant Y96A [4]; read-out: Vs DTT (percentage displacement of DTT bound to P-450)): 60% | Relative activity (WT = 1) [1]: 18.2 | Relative activity (WT = 1) [2]: 25.5 | Turnover rate measured as NADH consumption rate [3]: 6.0 nmole NADH/nmole P450cam/s | NADH turnover? (P-450cam mutant Y96A [7]): +

CCCC(C)C [2-methyl pentane]
Turnover rate measured as NADH consumption rate (wild type P450cam [8]): 3.8 nmole NADH/nmole P450cam/s | Turnover rate measured as NADH consumption rate [3]: 11.7 nmole NADH/nmole P450cam/s

CCCCC [n-Pentane]
percent displacement of bound DTT at 200 µM (P-450cam mutant Y96A [4]; [9]): 40% | Turnover rate measured as NADH consumption rate [3]: 5.8 nmole NADH/nmole P450cam/s | NADH turnover? (P-450cam mutant Y96A [7]): + | inhibition at 200 µM (wild type P450cam [6]): 5%

CC1(C)[C@@H]2CC[C@@]1(C)C(=O)C2=O [(1R)-(-)-Camphorquinone]
percent displacement of bound DTT at 200 µM (P-450cam mutant Y96A [4]; [9]): 80% | ΔSpin high/low (percentage of P-450 converted from low- to high-spin) (wild type P450cam [5]): 80% | inhibition at 200 µM (wild type P450cam [6]): 80%

CC1(C)C(=O)[C@]2(C)CC[C@H]1C2 [(1R)-(-)-Fenchone]
percent displacement of bound DTT at 200 µM (P-450cam mutant Y96A [4]; [9]): 80% | ΔSpin high/low (percentage of P-450 converted from low- to high-spin) (wild type P450cam [5]): 40% | inhibition at 200 µM (wild type P450cam [6]): 70%

CCCC(C)CCC [4-methyl heptane]
Turnover rate measured as NADH consumption rate (wild type P450cam [8]): 1.4 nmole NADH/nmole P450cam/s | Turnover rate measured as NADH consumption rate [3]: 10.2 nmole NADH/nmole P450cam/s

CCCC(C)(C)C [2,2-dimethyl pentane]
Turnover rate measured as NADH consumption rate (wild type P450cam [8]): 5.2 nmole NADH/nmole P450cam/s | Turnover rate measured as NADH consumption rate [3]: 12.8 nmole NADH/nmole P450cam/s

CCCCCCCCC [n-Nonane]
percent displacement of bound DTT at 200 µM (P-450cam mutant Y96A [4]; [9]): 45% | NADH turnover? (P-450cam mutant Y96A [7]): +

C1CCCCCC1 [cycloheptane]
Turnover rate measured as NADH consumption rate (wild type P450cam [8]): 4.4 nmole NADH/nmole P450cam/s | Turnover rate measured as NADH consumption rate [3]: 42.5 nmole NADH/nmole P450cam/s
